Measurements published in US8716285B2, “N-hydroxy-benzamids for the treatment of cancer” (Hoffmann-La Roche Inc., priority 2010, dated 2014).

Key:
[1] = molecular target: HDAC6 (Homo sapiens (Human), UniProt Q9UBN7); assay: Tubulin acetylation cytoblot assay (A549 cells); assay type: cell-based; conditions: 17-18 h, concentration for 50% induction of acetylated tubulin, read-out: Tub-ac EC50
Protocol: Tubulin acetylation is a PD marker for HDAC6 inhibition. The extent of tubulin acetylation represents the inhibitory effect on HDAC6.
Novel compounds were tested for their ability to inhibit HDAC6 using a cell-based deacetylation assay. Tubulin acetylation was detected by the anti-acetylated tubulin antibody (Sigma) and horse radish peroxidase (HRP) conjugated secondary antibody (KangChen Bio. Tech.). […] 20 μl of diluted compound solution was transferred to the cell culture plate and incubated for 17-18 h. After medium removal and fixation by formaldehyde (3.7% paraformaldehyde in TBS), the cells in the plates were treated with 180 μl of −20° C. MeOH and incubated for 5 min at rt. The cell lysis was incubated with 75 μl of primary anti-acetylated tubulin antibody and secondary HRP conjugated antibody solution (1:750 anti-acetylated tubulin, 1:750 HRP conjugated anti-mouse IgG in antibody dilution buffer not containing sodium azide) for 4 h at 4° C. By adding the HRP substrate, enhanced chemiluminescence (ECL) reagent (GE Healthcare) generated luminescence corresponding to the level of tubulin acetylation. So that 75 μl of ECL was added into the wells and the luminescence from each well was immediately quantified by the plate reader. Based on the luminescence reading, the IC50s against HDAC6 of the tested compounds were calculated by plotting the curve with XLfit4.0 software. Inhibition %=[signal(sample)−Mean(bottom)]*100/[Mean(top)−Mean(bottom)]

[2] = system: p21 promoter-luciferase construct; assay: p21 reporter gene induction in HeLa cells transfected with p21 promoter-luciferase construct; assay type: cell-based; conditions: for p21 RP3: relative gene level of p21 induced compared to MS275 at 3 μM; for p21 RP10: relative level of p21 induced compared to MS275 at 10 μM; for p21 RP30: relative level of p21 induced compared to MS275 at 30 μM
Protocol: As a surrogate for in-cell HDAC1/2/3 inhibition, p21 induction was used as a counterscreen to evaluate the selectivity of the compounds in the present invention toward HDAC6 or HDAC8.
The novel compounds of the present invention were tested for their ability to induce p21 gene expression using a reporter gene assay involving HeLa cells transfected with a p21 promoter-luciferase construct. The p21 promoter contained the Sp1/Sp3 binding site for HDAC but not the upstream p53 binding site. Briefly, the day before transfection, HeLa cells were seeded at 11,000 cells/well in a 96-well culture plate and incubated at 37° C. in 5% CO2 overnight. A transfection media was prepared prior to transfection according to the following procedure: (1) 5 μl serum-free DMEM, 0.15 μl Fugene 6 reagent, 40 ng p21-luc, 10 ng GFP were mixed gently and incubated at rt for 30 minutes; (2), then 98 μl DMEM (with 10% FBS, 1% penicillin and streptomycin) was added to the DNA: Fugene 6 reagent complex and mixed gently. For transfection, the medium was removed and replaced with 100 μl/well transfection media which was prepared according to the procedure above. After incubating the cells for 24 hours at 37° C. in 5% CO2, fresh media and test compounds were added to the wells and the cells further incubated for 15 hours at 37° C. in 5% CO2. Cells were lysed by adding 80 μl/well of a cell culture lysis reagent (Promega). […] 100 μl luciferase assay reagent (Promega) was then added to every 20 μl cell lysate for luminometer detection. […] Induction activity for specific representative compounds can be found in Table 3.

[3] = molecular target: recombinant human HDAC8 (Homo sapiens (Human), UniProt Q9BY41); assay: HDAC8 inhibition: recombinant HDAC8 fluorometric assay; assay type: biochemical; conditions: recombinant human HDAC8, substrate Ac-Arg-His-Lys-Lys(ε-acetyl)-AMC
Chain of recombinant human HDAC8 (Q9BY41 whole entry): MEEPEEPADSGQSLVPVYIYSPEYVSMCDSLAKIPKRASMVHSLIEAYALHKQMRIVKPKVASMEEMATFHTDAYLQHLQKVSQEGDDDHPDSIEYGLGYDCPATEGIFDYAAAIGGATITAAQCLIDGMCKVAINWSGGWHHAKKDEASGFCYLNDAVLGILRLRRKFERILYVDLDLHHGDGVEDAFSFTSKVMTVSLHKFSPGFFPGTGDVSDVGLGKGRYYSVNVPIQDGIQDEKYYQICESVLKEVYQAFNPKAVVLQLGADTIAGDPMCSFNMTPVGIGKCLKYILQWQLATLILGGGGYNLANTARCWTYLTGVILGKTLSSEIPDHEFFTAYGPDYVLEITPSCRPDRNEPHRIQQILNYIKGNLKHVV
Protocol: A competitive inhibitory assay of HDAC8 was carried out by using recombinant HDAC8 and a commercial substrate Ac-Arg-His-Lys-Lys(ε-acetyl)-AMC.
Compounds were tested for their ability to inhibit histone deacetylase 8 using an in vitro deacetylation assay. The enzyme source for this assay was recombinant human HDAC8 protein expressed and purified from insect cells. […] The substrate consisted of a commercial product Ac-Arg-His-Lys-Lys(ε-acetyl)-AMC (substrate is available from Cayman Chemical). […] In a detailed procedure, 8 μl of HDAC8 enzyme solution (0.125 μg/μl) was transferred to assay plates (CORNING 3676). 1 μl of half-log diluted compounds were added into wells and incubated for 15 min at rt. After that, 8 μl of substrate solution was transferred to the wells and incubated for 30 min at rt. After deacetylation of the substrate by incubation with HDAC8 enzyme, subsequent exposure to a developing reagent produced a fluorophore that was directly proportional to the level of deacetylation. So 4 μl of developer regent (Cayman 10006394) was added into the wells in the assay plates and incubated for 15 min. The fluorescence signal was measured by a FlexStation3 plate reader (excitation wave length 340-360 nm; emission wave length 440-465 nm). The IC50 was calculated after normalization and curve fitting using XLfit4.0 software. Inhibition %=[Mean(top)−signal(sample)]*100/[Mean(top)−Mean(bottom)].

Chain of HDAC6 (Q9UBN7 whole entry): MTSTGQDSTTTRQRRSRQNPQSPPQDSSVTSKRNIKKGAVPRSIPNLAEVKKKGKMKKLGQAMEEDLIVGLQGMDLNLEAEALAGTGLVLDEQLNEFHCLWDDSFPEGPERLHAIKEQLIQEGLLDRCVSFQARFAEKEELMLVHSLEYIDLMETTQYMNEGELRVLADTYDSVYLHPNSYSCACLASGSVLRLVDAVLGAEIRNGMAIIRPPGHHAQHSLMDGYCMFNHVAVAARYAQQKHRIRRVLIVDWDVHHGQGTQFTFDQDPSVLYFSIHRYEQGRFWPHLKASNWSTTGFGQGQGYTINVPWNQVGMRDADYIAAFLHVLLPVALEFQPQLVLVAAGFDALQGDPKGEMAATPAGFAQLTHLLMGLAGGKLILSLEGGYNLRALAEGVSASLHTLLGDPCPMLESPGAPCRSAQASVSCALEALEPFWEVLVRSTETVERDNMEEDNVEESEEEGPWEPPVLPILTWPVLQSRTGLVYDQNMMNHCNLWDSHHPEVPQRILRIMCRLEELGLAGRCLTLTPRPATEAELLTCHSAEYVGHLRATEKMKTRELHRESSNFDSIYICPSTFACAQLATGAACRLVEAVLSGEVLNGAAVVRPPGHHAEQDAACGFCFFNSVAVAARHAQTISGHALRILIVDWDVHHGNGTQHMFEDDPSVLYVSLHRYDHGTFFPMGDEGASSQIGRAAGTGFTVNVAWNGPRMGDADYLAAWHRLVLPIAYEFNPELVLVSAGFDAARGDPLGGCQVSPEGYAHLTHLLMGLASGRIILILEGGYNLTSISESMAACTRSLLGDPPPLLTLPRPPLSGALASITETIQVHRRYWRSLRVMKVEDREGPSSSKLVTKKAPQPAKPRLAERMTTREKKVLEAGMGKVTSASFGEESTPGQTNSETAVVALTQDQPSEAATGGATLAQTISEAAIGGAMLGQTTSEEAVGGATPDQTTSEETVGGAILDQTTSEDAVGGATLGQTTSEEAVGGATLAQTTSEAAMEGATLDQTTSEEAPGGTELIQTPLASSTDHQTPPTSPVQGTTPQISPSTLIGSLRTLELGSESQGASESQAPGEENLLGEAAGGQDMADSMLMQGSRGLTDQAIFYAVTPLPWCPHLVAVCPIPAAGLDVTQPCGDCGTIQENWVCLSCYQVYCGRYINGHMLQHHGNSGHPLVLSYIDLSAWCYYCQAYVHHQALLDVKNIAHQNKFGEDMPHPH

EC50 [1] [nM] | IC50 [3] [nM] | SMILES | p21 RP3 [2] | p21 RP10 [2] | p21 RP30 [2]
2300 | 1100 | Cc1ccc(-c2ccnc(NC3CCc4ccc(C(=O)NO)cc4C3)n2)c(F)c1 (centres unmarked) [Example 17, 7-[4-(2-Fluoro-4-methyl-phenyl)-pyrimidin-2-ylamino]-5,6,7,8-tetrahydro-naphthalene-2-carboxylic acid hydroxyamide] | −0.56 | −0.47 | −0.45
1370 | 1230 | COc1ccc(-c2ccnc(NC3CCc4ccc(C(=O)NO)cc4C3)n2)c(OC)c1 (centres unmarked) [Example 18, 7-[4-(2,4-Dimethoxy-phenyl)-pyrimidin-2-ylamino]-5,6,7,8-tetrahydro-naphthalene-2-carboxylic acid hydroxyamide] | 0.43 | 0.06 | −0.06
5000 | 1690 | O=C(NO)c1ccc2c(c1)CC(Nc1nccc(-c3ccc(C(F)(F)F)cc3)n1)CC2 (centres unmarked) [Example 19, 7-[4-(4-Trifluoromethyl-phenyl)-pyrimidin-2-ylamino]-5,6,7,8-tetrahydro-naphthalene-2-carboxylic acid hydroxyamid] | −0.18 | −0.26 | −0.29
6200 | 1520 | O=C(NO)c1ccc2c(c1)CC(Nc1nccc(-c3ccc(Cl)cc3Cl)n1)CC2 (centres unmarked) [Example 20, 7-[4-(2,4-Dichloro-phenyl)-pyrimidin-2-ylamino]-5,6,7,8-tetrahydro-naphthalene-2-carboxylic acid hydroxyamide] | −0.71 | −0.44 | −0.40
9530 | 2150 | Cc1cc(Cl)ccc1-c1ccnc(NC2CCc3ccc(C(=O)NO)cc3C2)n1 (centres unmarked) [Example 21, 7-[4-(4-Chloro-2-methyl-phenyl)-pyrimidin-2-ylamino]-5,6,7,8-tetrahydro-naphthalene-2-carboxylic acid hydroxyamide] | −0.24 | −0.28 | −0.32
6000 | 2240 | O=C(NO)c1ccc2c(c1)CC(Nc1nccc(-c3ccc(F)c(Cl)c3)n1)CC2 (centres unmarked) [Example 22, 7-[4-(3-Chloro-4-fluoro-phenyl)-pyrimidin-2-ylamino]-5,6,7,8-tetrahydro-naphthalene-2-carboxylic acid hydroxyamide] | −0.87 | −0.59 | −0.52
6200 | 480 | Cc1ccc(-c2ccnc(NC3CCc4ccc(C(=O)NO)cc4C3)n2)cn1 (centres unmarked) [Example 25, 7-[4-(6-Methyl-pyridin-3-yl)-pyrimidin-2-ylamino]-5,6,7,8-tetrahydro-naphthalene-2-carboxylic acid hydroxyamide] | 0.30 | 0.13 | 0.08
1520 | 520 | Cc1cncc(-c2ccnc(NC3CCc4ccc(C(=O)NO)cc4C3)n2)c1 (centres unmarked) [Example 26, 7-[4-(5-Methyl-pyridin-3-yl)-pyrimidin-2-ylamino]-5,6,7,8-tetrahydro-naphthalene-2-carboxylic acid hydroxyamide] | 0.68 | 0.20 | −0.05
1900 | 520 | COc1cncc(-c2ccnc(NC3CCc4ccc(C(=O)NO)cc4C3)n2)c1 (centres unmarked) [Example 27, 7-[4-(5-Methoxy-pyridin-3-yl)-pyrimidin-2-ylamino]-5,6,7,8-tetrahydro-naphthalene-2-carboxylic acid hydroxyamide] | 0.35 | 0.05 | −0.09
5470 | 1000 | COc1ccc(-c2ccnc(NC3CCc4ccc(C(=O)NO)cc4C3)n2)cn1 (centres unmarked) [Example 28, 7-[4-(6-Methoxy-pyridin-3-yl)-pyrimidin-2-ylamino]-5,6,7,8-tetrahydro-naphthalene-2-carboxylic acid hydroxyamide] | −0.20 | −0.19 | −0.24
